Laboratory results from ChEMBL document CHEMBL4673209, “Discovery of a novel potent GPR40 full agonist” (Bioorg Med Chem Lett, 2018).
Activity calls are given as the source filed them. No cut-off for these calls is given here.

Legend:
Cytochrome P450 2C8 = target: T1, Cytochrome P450 2C8 (Homo sapiens, UniProt P10632); experiment: Inhibition of recombinant CYP2C8 (unknown origin); type: ADME
T1 sequence (P10632 whole entry): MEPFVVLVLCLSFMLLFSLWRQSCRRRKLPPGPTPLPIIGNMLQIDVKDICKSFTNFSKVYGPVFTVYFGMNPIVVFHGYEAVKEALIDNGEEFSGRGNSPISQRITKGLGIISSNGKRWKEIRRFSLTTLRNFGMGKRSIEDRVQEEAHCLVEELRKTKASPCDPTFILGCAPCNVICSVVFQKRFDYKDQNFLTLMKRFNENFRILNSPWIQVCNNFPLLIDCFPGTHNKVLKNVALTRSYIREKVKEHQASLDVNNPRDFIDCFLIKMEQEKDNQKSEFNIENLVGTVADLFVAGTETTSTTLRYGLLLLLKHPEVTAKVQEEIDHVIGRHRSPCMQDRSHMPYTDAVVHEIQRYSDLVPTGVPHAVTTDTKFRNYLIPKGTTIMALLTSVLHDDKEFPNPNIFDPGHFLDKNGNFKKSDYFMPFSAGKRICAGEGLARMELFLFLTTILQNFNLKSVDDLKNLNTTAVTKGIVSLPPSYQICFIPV

Cytochrome P450 2D6 = Cytochrome P450 2D6 (Homo sapiens, UniProt P10635); experiment: Inhibition of CYP2D6 (unknown origin); type: ADME
Cytochrome P450 2D6, sequence (P10635 whole entry): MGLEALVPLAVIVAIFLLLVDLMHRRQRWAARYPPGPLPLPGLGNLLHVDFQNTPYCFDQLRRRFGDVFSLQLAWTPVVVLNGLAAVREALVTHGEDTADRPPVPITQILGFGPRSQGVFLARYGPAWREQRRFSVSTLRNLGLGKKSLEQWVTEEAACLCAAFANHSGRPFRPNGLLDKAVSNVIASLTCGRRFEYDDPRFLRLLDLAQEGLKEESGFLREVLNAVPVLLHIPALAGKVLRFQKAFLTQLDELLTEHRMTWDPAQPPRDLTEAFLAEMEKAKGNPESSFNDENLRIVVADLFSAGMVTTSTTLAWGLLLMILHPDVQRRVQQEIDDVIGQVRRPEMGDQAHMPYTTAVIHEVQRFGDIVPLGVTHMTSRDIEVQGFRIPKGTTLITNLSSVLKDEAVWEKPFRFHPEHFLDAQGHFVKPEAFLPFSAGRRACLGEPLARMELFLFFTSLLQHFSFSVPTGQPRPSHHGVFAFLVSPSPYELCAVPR

[1] = Drug metabolism in rat assessed as (3S)-3-cyclopropyl-3-(3-((5-(5-fluoro-2-hydroxypyridin-4-yl)-6-isobutylpyrazin-2-yl)methoxy)phenyl)propanoic acid metabolite formation by MetID studies; type: ADME
[2] = target: T2, Free fatty acid receptor 1 (Homo sapiens, UniProt O14842); experiment: Agonist activity at GPR40 in human islets assessed as induction of glucose-stimulated insulin secretion at 0.3 to 10 uM; type: tissue-based; conditions: Pancreatic islet, filed as agonist, dose 0.3-10 µM
T2 sequence (O14842 whole entry): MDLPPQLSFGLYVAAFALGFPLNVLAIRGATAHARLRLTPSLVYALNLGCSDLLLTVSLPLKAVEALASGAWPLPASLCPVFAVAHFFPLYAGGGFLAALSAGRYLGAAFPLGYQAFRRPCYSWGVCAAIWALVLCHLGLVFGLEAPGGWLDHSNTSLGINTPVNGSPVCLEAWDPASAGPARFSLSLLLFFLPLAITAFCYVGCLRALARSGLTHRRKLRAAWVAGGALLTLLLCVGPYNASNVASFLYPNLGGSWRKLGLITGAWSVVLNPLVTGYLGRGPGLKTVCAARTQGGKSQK

[3] = target: T3, Peroxisome proliferator-activated receptor alpha (Homo sapiens) (UniProt Q07869); experiment: Agonist activity at PPARalpha (unknown origin)
T3 sequence (whole entry): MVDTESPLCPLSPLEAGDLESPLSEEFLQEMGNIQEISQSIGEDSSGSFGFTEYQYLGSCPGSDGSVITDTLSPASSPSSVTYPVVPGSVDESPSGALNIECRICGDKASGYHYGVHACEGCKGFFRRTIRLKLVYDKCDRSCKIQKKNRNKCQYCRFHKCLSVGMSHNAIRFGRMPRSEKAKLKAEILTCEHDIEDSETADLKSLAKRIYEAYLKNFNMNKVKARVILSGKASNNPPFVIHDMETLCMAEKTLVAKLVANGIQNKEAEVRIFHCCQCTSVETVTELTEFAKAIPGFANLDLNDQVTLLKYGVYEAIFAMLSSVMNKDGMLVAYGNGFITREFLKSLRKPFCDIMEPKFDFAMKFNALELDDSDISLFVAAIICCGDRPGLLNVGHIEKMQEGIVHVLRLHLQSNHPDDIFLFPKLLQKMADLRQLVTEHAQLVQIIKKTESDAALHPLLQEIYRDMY

[4] = target: T4, Free fatty acid receptor 2 (Homo sapiens) (UniProt O15552); experiment: Agonist activity at GPR43 (unknown origin)
T4 sequence (whole entry): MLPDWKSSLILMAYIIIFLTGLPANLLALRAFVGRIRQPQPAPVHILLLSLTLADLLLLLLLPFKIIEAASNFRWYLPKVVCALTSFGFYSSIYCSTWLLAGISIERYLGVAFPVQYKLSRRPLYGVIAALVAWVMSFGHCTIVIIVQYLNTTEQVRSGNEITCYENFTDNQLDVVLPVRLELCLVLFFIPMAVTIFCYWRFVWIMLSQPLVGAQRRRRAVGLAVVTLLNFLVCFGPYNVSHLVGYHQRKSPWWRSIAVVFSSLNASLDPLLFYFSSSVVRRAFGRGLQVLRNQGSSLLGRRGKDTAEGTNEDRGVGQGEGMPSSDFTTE

[5] = target: T5, Free fatty acid receptor 3 (Homo sapiens) (UniProt O14843); experiment: Agonist activity at GPR41 (unknown origin)
T5 sequence (whole entry): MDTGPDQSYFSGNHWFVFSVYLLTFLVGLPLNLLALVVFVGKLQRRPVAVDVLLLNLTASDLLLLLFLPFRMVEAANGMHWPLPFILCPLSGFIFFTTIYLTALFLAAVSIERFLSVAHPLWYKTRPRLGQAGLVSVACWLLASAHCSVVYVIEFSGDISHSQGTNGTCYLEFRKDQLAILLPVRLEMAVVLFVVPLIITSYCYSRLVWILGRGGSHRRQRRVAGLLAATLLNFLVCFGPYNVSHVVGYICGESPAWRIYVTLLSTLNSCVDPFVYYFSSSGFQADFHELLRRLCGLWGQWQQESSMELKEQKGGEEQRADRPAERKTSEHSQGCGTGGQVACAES

[6] = Drug metabolism in human assessed as (3S)-3-cyclopropyl-3-(3-((5-(5-fluoro-2-hydroxypyridin-4-yl)-6-isobutylpyrazin-2-yl)methoxy)phenyl)propanoic acid metabolite formation by MetID studies; type: ADME
Mus musculus = experiment: In vivo agonist activity at GPR40 in C57 mouse assessed as induction of GLP1 secretion at 100 mg/kg; type: functional, organism-based
Rattus norvegicus [7] = experiment: Anti-glycemic activity in fasted Sprague-Dawley ZDF rat assessed as reduction in post-prandial hyperglycemia by measuring AUC(0 to 2 hrs) for blood glucose at 3 mg/kg administered daily for 8 days and measured on day 8 by OGTT; type: functional; conditions: time 8 day
Rattus norvegicus [8] = experiment: Anti-glycemic activity in fasted Sprague-Dawley ZDF rat assessed as reduction in post-prandial hyperglycemia by measuring AUC(0 to 2 hrs) for blood glucose at 3 mg/kg administered for 1 day and measured on day 1 by OGTT; type: functional
Rattus norvegicus [9] = experiment: Anti-glycemic activity in fasted Sprague-Dawley ZDF rat assessed as increase in insulin secretion by measuring insulin level in plasma at 10 mg/kg administered 30 mins prior to glucose challenge measured after 140 mins by OGTT; type: functional; conditions: time 170 min, 2.833 h
[10] = target: Free fatty acid receptor 1 (Rattus norvegicus) (UniProt Q8K3T4); experiment: Agonist activity at rat GPR40 receptor expressed in CHOK1 cells assessed as induction of IP1 accumulation at 10 uM relative to AM1638; type: functional, cell-based; conditions: CHO-K1, filed as agonist
Free fatty acid receptor 1 (Rattus norvegicus), sequence (Q8K3T4 whole entry): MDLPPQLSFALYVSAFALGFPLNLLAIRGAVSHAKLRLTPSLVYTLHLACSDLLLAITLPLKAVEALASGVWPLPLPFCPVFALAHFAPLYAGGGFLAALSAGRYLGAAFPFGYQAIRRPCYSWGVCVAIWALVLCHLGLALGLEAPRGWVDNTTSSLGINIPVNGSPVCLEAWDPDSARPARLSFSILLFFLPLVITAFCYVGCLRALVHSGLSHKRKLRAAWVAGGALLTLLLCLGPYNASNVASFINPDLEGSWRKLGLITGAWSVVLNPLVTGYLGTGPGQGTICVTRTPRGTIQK

[11] = target: T2, Free fatty acid receptor 1; experiment: Agonist activity at human GPR40 receptor expressed in CHOK1 cells assessed as induction of IP1 accumulation; type: functional, cell-based, CHO-K1
[12] = target: T2, Free fatty acid receptor 1; experiment: Agonist activity at human GPR40 receptor expressed in CHOK1 cells assessed as induction of IP1 accumulation at 10 uM relative to AM1638; type: functional, cell-based; conditions: CHO-K1, filed as agonist
[13] = Apparent permeability from apical to basolateral side in dog MDCK-MDR1 cells; type: ADME, cell-based, Canis lupus familiaris
[14] = Apparent permeability from basolateral to apical side in dog MDCK-MDR1 cells; type: ADME, cell-based, Canis lupus familiaris
[15] = Cmax in dog; type: ADME, Canis lupus familiaris; conditions: in vivo
[16] = Cmax in cynomolgus monkey; type: ADME, Macaca fascicularis; conditions: in vivo
[17] = Half life in iv dosed dog; type: ADME, organism-based, Canis lupus familiaris; conditions: in vivo
[18] = Half life in iv dosed rat; type: ADME, organism-based; conditions: in vivo
[19] = Oral bioavailability in dog; type: ADME, organism-based, Canis lupus familiaris; conditions: in vivo
[20] = Hepatic clearance in human; type: ADME

COc1cc(-c2ncc(COc3cccc([C@@H](CC(=O)O)C4CC4)c3)nc2CC(C)C)c(F)cn1
IC50 (Cytochrome P450 2C8): 9.8 µM | IC50 (Cytochrome P450 2D6): > 10 µM | Drug metabolism [1]: Metabolite_Detected | Activity [2]: Active | Activity [3]: inactive | Activity [4]: inactive | Activity [5]: inactive | Drug metabolism [6]: Metabolite_Detected | Activity (Mus musculus): Active | Activity (Rattus norvegicus [7]): 16769 ng/mL.hr | Activity (Rattus norvegicus [8]): 15896 ng/mL.hr | Activity (Rattus norvegicus [9]): 16925 ng/mL | Activity [10]: 95% | EC50 [11]: 0.894 µM | Activity [12]: 121% | Papp A→B [13]: 50 ×10⁻⁶ cm/s | Papp B→A [14]: 82 ×10⁻⁶ cm/s | Cmax [15]: 1550 ng/mL | Cmax [16]: 8570 ng/mL | half-life [17]: 4.82 h | half-life [18]: 2.71 h | bioavailability [19]: 33.6% | CLH [20]: 8.9 mL/min/kg
